Consider one molecule from patent EP0303028A1, “Method for preparing single chain urokinase” (GRUPPO LEPETIT S.p.A., priority 1987, dated 1989).

Square brackets hold non-standard residues; d marks the D form. Peptide text beside a SMILES is read from it. * marks the point of attachment. pNA = O=[N+]([O-])c1ccc(N*)cc1; pGlu = O=C1CC[C@@H](C(=O)O)N1

Holding throughout (assay): Kinetics of amidolytic activity on S-2444 (Lineweaver-Burk)
Assay type in all cases: biochemical
Holding throughout (settings): pH 8.8 and 37°C

The target of experiment [1] is plasmin-activated A431 scu-PA (from untransformed human A431 cells) (Homo sapiens, UniProt P00749). As for the experimental part: (§1) The fibrinolytic assay is carried out by the fibrin plate method (Astrup T., Mullertz S., The fibrin plate method for estimating fibrinolytic activity, Arch Biochem Biophys 1952, 40:346-351). Urokinase reference standard is used to calibrate each assay. Activity is measured in International Units (I.U.) relative to the International Reference Preparation as the primary standard. sc-uPA (cell produced single chain urokinase) fibrinolytic latent activity is determined after activation as follows: plasmin (10 mg) is coupled with CNBr-activated Sepharose (cross-linked agarose) (2.5 ml) using 0.5 M sodium carbonate buffer as the coupling buffer. A 1:10 suspension of plasmin-agarose (0.9 ml) in 0.15 M sodium chloride, 0.05 M sodium phosphate buffer pH 7.4 is mixed with sc-uPA samples (0.1 ml) and gently rotated for 1 h at 20°C. Plasmin-agarose is removed by centrifugation 2 min at 10000 x g and the supernatant tested by the fibrin plate assay. Protein concentrations were measured according to the method of Lowry (Lowry O., Rosebrough H., Parr A., Randall R., Protein measurement with the Folin phenol reagent, J. Biol. Chem. 1951, 193,265-275). Amidolytic assays are performed by measuring the rate of hydrolysis of the synthetic substrate pyro-Glu-Gly-Arg-pNA, S-2444 (Claeson G., Friberger P., Knos M., Eriksson E., Methods for determination of pre-kallikrein in plasma, glandular kallikrein and urokinase, Haemostasis 1978; 7:76-78). Immunoadsorbent-amidolytic assay (IAA) is carried out as described by Corti A., Nolli ML., Cassani G., Differential detection of single-chain and two-chain urokinase type plasminogen activator by a new immunoadsorbent amidolytic assay (IAA), Throm Haemostas 1986, 56:407-10. The assay combines the selectivity of immunoassays with the specificity of enzyme activity assays exploiting both the antigenic and enzymatic properties of the two proteins. tcu-PA and scu-PA are selectively immunoadsorbed on the wells of a microtiter plate coated with the monoclonal antibody 5B4 and tested for enzymatic activity before and after activation by plasmin treatment.
(§2) To determine the kinetic parameters of the amidolytic activity, plasmin-activated u-PA's (4.5 nM) are incubated at different concentrations (0.03 - 0.3 mM) of pyro-Glu-Gly-Arg-p-nitroanilide (S-2444) in 0.1 M Tris Cl (pH 8.8), 50 mM NaCl and 0.1% bovine serum albumin at 37°C. The initial rate of p-nitroaniline release is determined photometrically at 405 nm. The linear increase of absorbance with time for the various concentrations of S-2444 is reported in a Lineweaver-Burk plot from which Km and Vmax are calculated by extrapolation of the curves obtained using a linear regression program.

Experiment [2] addresses plasmin-activated BPV-LB6-scu-PA (recombinant human uPA from BPV vector transfected murine LB6 cells) (Homo sapiens, UniProt P00749). How it is done: as §1, §2
Experiment [3] deals with plasmin-activated RSV-A431-scu-PA (recombinant human uPA from RSV-uPA transfected A431 cells) (Homo sapiens, UniProt P00749). As for the experimental part: as §1, §2
The target in experiment [4] is plasmin-activated RSV-CHO-scu-PA (recombinant human uPA from RSV-uPA transfected CHO cells) (Homo sapiens, UniProt P00749). How it is done: as §1, §2
Experiment [5] addresses plasmin-activated RSV-LB6-scu-PA (3F11-scu-PA; recombinant human uPA from RSV-uPA transfected murine LB6 cells) (Homo sapiens, UniProt P00749). How it is done: as §1, §2
The target of experiment [6] is plasmin-activated urinary scu-PA (human urine tcu-PA, urokinase) (Homo sapiens, UniProt P00749). As for the experimental part: as §1, §2

Broadly, the Km is the concentration of substrate that gives half-maximal velocity. Broadly, the kcat is the number of substrate molecules converted per active site and unit of time at saturation. On to `N=C(N)NCCC[C@H](NC(=O)CNC(=O)[C@@H]1CCC(=O)N1)C(=O)Nc1ccc([N+](=O)[O-])cc1` [S-2444, pyro-Glu-Gly-Arg-p-nitroanilide] ([pGlu]-Gly-Arg-pNA), for which the Km in experiment [1] amounted to 72 µM; in experiment [2], 78 µM; in experiment [3], 76 µM; in experiment [4] it was 76 µM; in experiment [5], 69 µM; in experiment [6] it was 80 µM. Besides, the kcat in experiment [1] was determined as 23 s⁻¹; in experiment [2], 26 s⁻¹; in experiment [3], 23 s⁻¹; in experiment [4] it was 26 s⁻¹; in experiment [5], 24 s⁻¹; in experiment [6], 25 s⁻¹.
